From US11925655B2, “FAP-activated therapeutic agents, and uses related thereto” (Bach Biosciences, LLC, priority 2014, dated 2024) come the findings set out here.

One series concerns the target T1, FAP (Homo sapiens, UniProt Q12884).
T1 sequence (Q12884 1-760): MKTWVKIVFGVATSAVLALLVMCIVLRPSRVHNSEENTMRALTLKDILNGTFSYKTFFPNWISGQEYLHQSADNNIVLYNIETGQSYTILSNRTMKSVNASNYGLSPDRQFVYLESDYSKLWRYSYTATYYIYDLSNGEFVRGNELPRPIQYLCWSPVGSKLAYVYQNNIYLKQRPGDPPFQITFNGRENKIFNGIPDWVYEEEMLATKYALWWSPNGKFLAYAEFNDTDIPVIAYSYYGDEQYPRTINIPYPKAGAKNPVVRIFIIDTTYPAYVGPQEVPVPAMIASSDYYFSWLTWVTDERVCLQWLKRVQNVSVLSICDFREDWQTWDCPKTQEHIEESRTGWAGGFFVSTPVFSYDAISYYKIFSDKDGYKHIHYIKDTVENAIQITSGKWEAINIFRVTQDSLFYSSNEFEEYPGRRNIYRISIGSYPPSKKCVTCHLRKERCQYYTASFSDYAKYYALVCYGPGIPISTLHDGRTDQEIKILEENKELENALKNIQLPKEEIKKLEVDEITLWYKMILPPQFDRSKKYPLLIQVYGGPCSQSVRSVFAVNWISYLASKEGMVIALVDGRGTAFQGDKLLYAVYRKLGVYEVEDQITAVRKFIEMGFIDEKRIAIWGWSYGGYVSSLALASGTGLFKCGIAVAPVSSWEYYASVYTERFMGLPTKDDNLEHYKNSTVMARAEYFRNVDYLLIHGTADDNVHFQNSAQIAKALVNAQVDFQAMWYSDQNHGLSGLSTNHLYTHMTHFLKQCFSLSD
Kind of series: Specificity of activation: digest with FAP. In kind it is biochemical. The conditions noted are these: 100 μM prodrug, 24 hours at 37° C. How it is done:
(§1) Total doxorubicin was measured for each assay.

Series [1] concerns the target dipeptidyl peptidase IV (DPP IV) (Homo sapiens, UniProt P27487). Kind of series: Specificity of activation: digest with DPP IV. In kind it is biochemical. The note with it: 100 μM prodrug, 24 hours at 37° C. How it is done:
as §1

The next series deals with CT26 cells. Kind of series: CellTiter-Blue cell viability assay with CT26 cells. In kind it is cell-based. The conditions noted are these: Mus musculus. Background: Resazurin is reduced to fluorescent resorufin, in cell work by metabolically active cells.
The target in a further series is T2, PREP (Homo sapiens, UniProt P48147).
T2 sequence (P48147 1-710): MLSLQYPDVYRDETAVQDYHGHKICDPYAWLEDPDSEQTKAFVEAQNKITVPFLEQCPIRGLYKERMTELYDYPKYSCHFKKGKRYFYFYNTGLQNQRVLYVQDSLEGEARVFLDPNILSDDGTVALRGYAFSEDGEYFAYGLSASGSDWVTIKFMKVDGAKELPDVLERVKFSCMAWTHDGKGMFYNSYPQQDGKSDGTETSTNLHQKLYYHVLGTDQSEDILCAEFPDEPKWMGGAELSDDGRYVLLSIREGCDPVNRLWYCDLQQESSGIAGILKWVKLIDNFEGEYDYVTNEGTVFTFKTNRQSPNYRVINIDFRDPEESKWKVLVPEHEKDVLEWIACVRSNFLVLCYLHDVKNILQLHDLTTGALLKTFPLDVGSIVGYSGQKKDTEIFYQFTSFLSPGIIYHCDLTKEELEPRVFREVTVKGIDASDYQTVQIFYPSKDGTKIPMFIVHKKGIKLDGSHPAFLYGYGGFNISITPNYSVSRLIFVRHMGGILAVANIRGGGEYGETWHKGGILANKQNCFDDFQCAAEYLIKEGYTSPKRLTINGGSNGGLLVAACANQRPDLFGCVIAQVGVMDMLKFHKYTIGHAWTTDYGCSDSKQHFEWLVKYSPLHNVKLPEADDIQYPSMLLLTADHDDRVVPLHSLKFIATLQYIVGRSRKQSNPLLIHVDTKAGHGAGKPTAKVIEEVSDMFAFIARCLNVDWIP
Description: Specificity of activation: digest with PREP. The format is biochemical. The conditions noted are these: 100 μM prodrug, 24 hours at 37° C. The procedure:
as §1

In a further series the test system is HEK-mFAP cells. Kind of series: CellTiter-Blue cell viability assay with HEK-mFAP cells. The note with it: Homo sapiens, 5107DOX assay, 72 hour incubation. In kind it is cell-based, human.
A short description of series [2]: Stability in mouse muscle lysate. The conditions noted are these: 100 μM prodrug, 37° C., 12 h.
For series [3], the system named is COc1cccc2c1C(=O)c1c(O)c3c(c(O)c1C2=O)C[C@@](O)(C(=O)CO)C[C@@H]3OC1CC(NC(=O)[C@@H]2CC(F)(F)CN2C(=O)CNC(=O)c2ccnc3ccccc23)C(O)C(C)O1. Description: FAP digest of 5057DOX (kinetics). In kind it is biochemical.
Series [4] concerns COc1cccc2c1C(=O)c1c(O)c3c(c(O)c1C2=O)C[C@@](O)(C(=O)CO)C[C@@H]3OC1CC(NC(=O)[C@@H]2CCCN2C(=O)[C@@H](C)NC(=O)c2ccncc2)C(O)C(C)O1. The format is biochemical. The conditions noted are these: other: 1.34×10^−8 M FAP, 37° C., pH 7.5. How it is done: Michaelis-Menten enzyme kinetics for FAP were measured using a SpectraMax M2e microplate reader (Molecular Devices, Sunnyvale, CA, USA). The assays were performed in FAP buffer (50 mM Tris, 140 mM NaCl, pH 7.5) at 25° C., and the fluorescence continuously monitored at excitation and emission wavelengths of 380 and 460 nm, respectively. Kinetic constants (kcat and Km) were determined using GP-AMC (Bachem, Torrance, CA, USA), Ac-(D)-AP-AFC (MP Biomedicals, Solon, OH, USA) and test article concentrations equivalent to 0.1-5 times their respective Km values, and with 5-10 nM enzyme. All assays were performed in triplicate, and the results were calculated with a nonlinear regression analysis, relying on a Michaelis-Menten curve fit using GraphPad software.
3099DOX at various concentrations ranging from 8.5×10^−6 M to 6.9×10^−4 M was incubated with 1.34×10^−8 M FAP or PREP at 37° C., and released doxorubicin measured.

[5] abbreviates: other: 5057DOX assay 6, [FAP] 4.00 × 10^−9M.
The mark [6] stands for this setting: other: 5057DOX assay 7, [FAP] 1 nM.

Read-outs that look alike come from different tables or passages of the source.

Chain of dipeptidyl peptidase IV (DPP IV) (P27487 whole entry, species assumed): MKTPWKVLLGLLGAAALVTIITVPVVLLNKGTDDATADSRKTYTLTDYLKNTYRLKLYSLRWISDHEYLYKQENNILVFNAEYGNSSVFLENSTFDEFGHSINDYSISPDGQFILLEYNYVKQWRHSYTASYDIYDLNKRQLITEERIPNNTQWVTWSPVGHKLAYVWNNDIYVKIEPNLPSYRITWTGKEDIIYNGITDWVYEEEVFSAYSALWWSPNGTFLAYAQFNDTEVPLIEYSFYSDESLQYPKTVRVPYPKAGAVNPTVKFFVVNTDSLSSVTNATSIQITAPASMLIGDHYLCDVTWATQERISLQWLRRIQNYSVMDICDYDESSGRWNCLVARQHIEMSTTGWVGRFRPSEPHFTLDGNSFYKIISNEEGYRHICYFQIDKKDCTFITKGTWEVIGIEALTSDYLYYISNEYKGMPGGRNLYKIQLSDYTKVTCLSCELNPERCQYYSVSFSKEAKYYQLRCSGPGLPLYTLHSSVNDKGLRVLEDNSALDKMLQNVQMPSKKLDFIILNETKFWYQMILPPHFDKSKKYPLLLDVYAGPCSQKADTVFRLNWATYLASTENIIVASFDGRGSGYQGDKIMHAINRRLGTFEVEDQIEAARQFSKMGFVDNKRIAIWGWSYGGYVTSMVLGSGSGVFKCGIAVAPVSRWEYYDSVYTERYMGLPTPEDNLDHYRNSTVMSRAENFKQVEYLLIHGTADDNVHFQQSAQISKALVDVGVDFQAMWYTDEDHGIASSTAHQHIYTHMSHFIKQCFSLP

On to `COc1cccc2c1C(=O)c1c(O)c3c(c(O)c1C2=O)C[C@@](O)(C(=O)CO)C[C@@H]3OC1CC(NC(=O)[C@@H]2CCCN2C(=O)[C@@H](C)NC(=O)[C@H](CO)NC(=O)CCC(=O)O)C(O)C(C)O1` (stereo partly shown) [Compound 3996DOX], for which the “doxorubicin released by FAP, relative amount” value on FAP (as much doxorubicin as from the other prodrugs) is listed as “about 15%”. Further, the “doxorubicin released by DPP IV” value in series [1] is reported as “essentially none”. The figures for the EC50 in the series on CT26 cells (read-out: EC50 (prodrug + 50 nM FAP)), with CT26 cells (read-out: EC50 (prodrug + 50 nM PREP)) and in the series on CT26 cells (read-out: EC50 (prodrug alone)) were 26 µM, 210 µM and 190 µM, respectively. In addition, the “doxorubicin released by PREP” value on PREP is on record as “essentially none”.
As for `COc1cccc2c1C(=O)c1c(O)c3c(c(O)c1C2=O)C[C@@](O)(C(=O)CO)C[C@@H]3OC1CC(NC(=O)[C@@H]2CC(F)(F)CN2C(=O)[C@@H](C)NC(=O)c2ccnc3ccccc23)C(O)C(C)O1` (stereo partly shown) [Compound 5107DOX], the EC50 (usually the concentration at which the effect is half-maximal) was over 100 µM with HEK-mFAP cells (read-out: EC50 (prodrug + 100 uM 5057-2)) and 0.94 µM in the series on HEK-mFAP cells (read-out: EC50 (prodrug alone)).
`COc1cccc2c1C(=O)c1c(O)c3c(c(O)c1C2=O)C[C@@](O)(C(=O)CO)C[C@@H]3O[C@H]1C[C@H](NC(=O)[C@@H]2CCCN2C(=O)CNC(=O)OCc2ccccc2)[C@H](O)[C@H](C)O1` [z-GP-DOX, reference compound]: on FAP, the “doxorubicin released by FAP” value is given as “A similar amount of doxorubicin was released”. Also, the “doxorubicin released by DPP IV” value in series [1] was “essentially none”. For the same molecule, the “doxorubicin released by PREP” value on PREP is on record as “A similar amount of doxorubicin was released”. For the same molecule, the “doxorubicin released in mouse muscle lysate” value in series [2] is reported as “a large amount of doxorubicin”.
Regarding FAP (Homo sapiens), in series [3] (setting [5]), the Km (as a rule, the concentration of substrate that gives half-maximal velocity) is recorded as “Km 1.11 × 10^−5M M”; the Vmax (commonly the rate approached at saturating substrate) is reported as “Vmax 5.19 × 10^−9M/sec M/sec”; the catalytic efficiency (kcat/Km) (usually the turnover number divided by the Michaelis constant) is recorded as “kcat/Km 1.17 × 10^5M^−1sec^−1 M^−1sec^−1”. Also, in series [3] (setting [6]), the Km result is given as “Km 4.85 × 10^−6M M”; the kcat (in general, the number of substrate molecules converted per active site and unit of time at saturation) is “Kcat 0.98 sec^−1 sec^−1”; the kcat/Km result was “Kcat/Km 2.00 × 10^5M^−1 sec^−1 M^−1 sec^−1”. Besides, in series [4], the Km worked out at 11.2 µM, the Vmax was found to be 5.877e-09 M/s, the kcat was determined as 0.44 s⁻¹ and the kcat/Km was 39171 M⁻¹ s⁻¹.
